Tested on: Aspergillus niger pectin lyase B (PLB), purified from pelB transformant B13, SEQ ID NO: 6
Conditions: EDTA 3 mM final concentration in the reaction mixture; enzyme reactivated by excess of Ca2+ ions
Experimental: Both highly esterified pectin (d.e. 94%) as well as pectins with lower degree of esterification like Brown Ribbon apple pectin (d.e. 72.8%; Obipektin AG Bischoffzell) can be used as substrate.
These values are determined according to the procedure of van Houdenhoven (ref. 18) using a Mc Ilvaine buffer of pH 8.0 (μ=0.5).

O=C([O-])CN(CCN(CC(=O)O)CC(=O)O)CC(=O)[O-].[Na+].[Na+] [EDTA, ethylenediaminetetraacetic acid disodium salt]
inhibition of the pectin lyase reaction by EDTA: inhibited

Reference: US5447862A, “Pectin lyase genes of aspergillus niger” (Ciba-Geigy Corporation, priority 1987, dated 1995)
